Earlier results, collected in US11981760B2, “Therapeutic hydrogels and contact lens for corneal melting” (THE REGENTS OF THE UNIVERSITY OF COLORADO, priority 2018, dated 2024).

In the case of `c1ccc(CNCc2ccccn2)nc1` [DPA, dipicolylamine], the “association with other metal ions” value (Ca^2+, Mg^2+, Na^+ and K^+) is listed as “does not associate strongly” and the Kd (five-membered chelate ring, read-out: Kd of Zn^2+ complexation) is listed as ~0.01 nM.
